Assays:
PBL of SLE patients [1] = assay: Proliferative response of PBL of SLE patients to the human 16/6Id mAb; type: cell-based; conditions: for inhibition of the proliferative responses of PBL to the human 16/6Id mAb / inhibition of the proliferative responses of PBL to human 16/6Id mAb: PBL of one SLE patient; for inhibition of the proliferative responses of PBL to the human 16/6Id mAb: FIG. 6; for inhibition of the proliferative responses of PBL to human 16/6Id mAb: FIG. 7, reversed murine peptides as controls; for Percent Inhibition of proliferation of PBL: highest positive inhibition, peptide 50 or 100 μg/well; for Percent Inhibition of proliferation of PBL, Mean ± SD: mean over the 19 responder SLE patients (positive inhibitions, above 50%); for responders whose PBL proliferation was inhibited (inhibition above 50% considered positive): of the 19 responder SLE patients tested
Protocol: Induction and treatment of experimental SLE. In order to induce experimental SLE, BALB/c mice were immunized with 1-2 μg of the human mAb 16/6Id and boosted 3 weeks later. For the prevention of experimental SLE, mice were given hCDR1 or hCDR3 (mCDR1 or revmCDR1 as control peptide in Example 12) intravenously (i.v.) or s.c. concomitant with the immunization, and were injected weekly thereafter for 5 weeks. Treatment of an established disease started three and a half months following disease induction with the 16/6Id, when clinical manifestations were already observed. In Example 12, mice received 10 weekly injections (i.v. or s.c.) of mCDR1 or revmCDR1 at a dose of 100 μg/mouse. Prevention and treatment of SLE-like disease in (NZB×NZW)F1 mice with the hCDR1 or mCDR1 peptide. For prevention of SLE, mice at the age of 2 months, before disease manifestations are observed, were injected s.c. with hCDR1 (or mCDR1 in Example 12, 250 μg/mouse) once a week for 10 weeks. To treat an established disease, mice at the age of 5-7 months were injected with hCDR1 (in Example 12, mCDR1 s.c., 250 μg/mouse) once a week for 10 weeks. Proliferative Responses. PBL were isolated from heparinized venous blood by Ficoll-Hypaque (Pharmacia) density-gradient centrifugation. All assays were performed, in triplicate, in flat-bottomed microtiter plates (Falcon, Becton Dickinson, Oxmard, Calif., USA) in which 2×10^5 PBL were cultured in enriched RPMI-1640 as described (Dayan et al., 2000). The PBL were exposed to various concentrations (0.1-40 μg/well) of the human anti-DNA 16/6Id mAb with and without the addition of the various CDR-based peptides at a concentration of at least 10-fold excess over that of the 16/6Id. Phytohemagglutinin (PHA; 2 μg/well) was used as a control for culture conditions at each experiment. The cultures were incubated in 7.5% CO2 at 37° C. for 6 days. Eighteen hours before the cells were harvested, [^3H]-thymidine (0.5μ Ci of 5 Ci/mmol) (Nuclear Research Center, Negev, Israel) was added to all cultures. Results are expressed as the mean thymidine incorporation in counts per minute (CPM) of triplicate culture±SD, or as stimulation index (S.I.; the ratio of mean CPM at the optimal concentration of the human 16/6Id to the mean CPM in the presence of medium alone). A S.I.≧2 was considered a positive response (Dayan et al., 2000). Inhibition (the ratio of mean CPM in the presence of the 16/6Id and various CDR-based peptides to the mean CPM with the 16/6Id without the CDR-based peptide) above 50% was considered positive. Induction of Cytokine Production. Mice that were immunized with the human 16/6Id mAb and either treated or not with the CDR-based peptide, were killed at different periods during or after treatment with the peptide. Splenocytes and lymph node cells (LNC) were harvested and incubated (5×10^6/ml) in the presence of the 16/6Id. Supernatants were collected after 48 and 72 h. Assessment of Cytokines in the Supernatants. Supernatants were collected 48 hours following the initiation of the cultures and stored at −70° C. Measurements of IL-2, IL-10, IFN-γ, and TNF-α were performed by ELISA by using the relevant standards, capture and detecting Abs (Pharmingen) according to the manufacturer's instructions. TGF-β was determined by an ELISA. Briefly, plates were coated with the recombinant human TGF-β1 sRIII/Fc chimera (R & D Systems Inc., Minneapolis, Minn., USA), and the second Ab used was the biotinylated anti-human TGF-β1 antibody (R & D Systems Inc.). The substrate solution used was TMB color Reagent (Helix Diagnostics, West Sacramento, Calif.), and enzyme activity was evaluated by using 570- and 630-nm filters. Detection of SLE-Associated Clinical and Pathological Manifestations. Proteinuria was measured semiquantitatively by using Combistix kit (Ames Division, Bayer Diagnostics, Newbury, U.K.). White blood cells (WBC, for leukopenia) were counted after a 10-fold dilution of heparinized blood in distilled water containing 1% acetic acid (vol/vol). […]

PBL of SLE patients [2] = assay: IL-2 secretion by PBL of SLE patients stimulated with the human 16/6Id mAb (CTLL line); type: cell-based; conditions: for patients whose PBL IL-2 secretion was inhibited: 23 responders stimulated by the human 16/6Id; for Maximum inhibition % (IL-2 secretion): PBL of 23 responders; for Maximum inhibition % (IL-2 secretion) / Inhibitory Activity* % (IL-2 secretion): IL-2 secretion with 16/6 Id alone = 100%; for inhibition of the IL-2 secretion by PBL: PBL of one SLE patient, FIG. 8; for Inhibitory Activity* % (IL-2 secretion): share of 23 responders with inhibition of 50% or more
Protocol: It was of interest to find out whether the hCDR peptides are capable of inhibiting IL-2 secretion by PBL of SLE patients following stimulation with the human 16/6Id mAb. […] To this end, PBL of SLE patients were incubated with the human 16/6Id mAb in the absence or presence of the peptides hCDR1 or hCDR3. Supernatants of the cultures were collected following 48 hours of incubation. Assays to determine levels of IL-2 in the supernatants were performed using the CTLL IL-2 dependent line. Briefly, cells of the CTLL line (2×10^4/well) were incubated in the presence of the different supernatants for 24 hours, followed by the addition of ^3H-thymidine for an additional 18-hour incubation period. Cells were then harvested and radioactivity counted using a β-counter. Results were calculated based on recombinant human IL-2 used as a standard. The ability of the peptides to inhibit the IL-2 secretion of PBL of 23 responders stimulated by the human 16/6Id was tested. […] Inhibition of proliferative responses of PBL directly correlated with IL-2 inhibition by the CDR-based peptides.

PBL of SLE patients [3] = assay: Proliferation of PBL of SLE patients stimulated with the mitogen PHA; type: cell-based, human; conditions: PBL of one SLE patient; PHA 2 μg/ml; FIG. 5
Protocol: To this end the peptides hCDR1 or hCDR3 were added to cultures of PBL of SLE patients that were stimulated with the mitogen phytohemagglutinin (PHA, 2 μg/ml).

GYYWSWIRQPPGKGEEWIG (Human) [hCDR1, 19-mer peptide based on the CDR1 of the heavy chain of the human 16/6Id mAb]
inhibition of the proliferative responses of PBL to the human 16/6Id mAb (PBL of SLE patients [1]): inhibited efficiently | inhibition of the proliferative responses of PBL to human 16/6Id mAb (PBL of SLE patients [1]): did inhibit efficiently | Percent Inhibition of proliferation of PBL (PBL of SLE patients [1]; SLE patient 1): 62% | Percent Inhibition of proliferation of PBL (PBL of SLE patients [1]; SLE patient 2 (M. D.)): 70% | Percent Inhibition of proliferation of PBL (PBL of SLE patients [1]; SLE patient 3): 69% | Percent Inhibition of proliferation of PBL (PBL of SLE patients [1]; SLE patient 4): <50% | Percent Inhibition of proliferation of PBL (PBL of SLE patients [1]; SLE patient 5): 88.5% | Percent Inhibition of proliferation of PBL (PBL of SLE patients [1]; SLE patient 6): 80% | Percent Inhibition of proliferation of PBL (PBL of SLE patients [1]; SLE patient 7): 76% | Percent Inhibition of proliferation of PBL (PBL of SLE patients [1]; SLE patient 8 (S. D.)): 58% | Percent Inhibition of proliferation of PBL (PBL of SLE patients [1]; SLE patient 9): 69.5% | Percent Inhibition of proliferation of PBL (PBL of SLE patients [1]; SLE patient 10): 68.2% | Percent Inhibition of proliferation of PBL (PBL of SLE patients [1]; SLE patient 11): <50% | Percent Inhibition of proliferation of PBL (PBL of SLE patients [1]; SLE patient 12): 82% | Percent Inhibition of proliferation of PBL (PBL of SLE patients [1]; SLE patient 13): 63% | Percent Inhibition of proliferation of PBL (PBL of SLE patients [1]; SLE patient 14): 56% | Percent Inhibition of proliferation of PBL (PBL of SLE patients [1]; SLE patient 15): 63% | Percent Inhibition of proliferation of PBL (PBL of SLE patients [1]; SLE patient 16): <50% | Percent Inhibition of proliferation of PBL (PBL of SLE patients [1]; SLE patient 17): 70.5% | Percent Inhibition of proliferation of PBL (PBL of SLE patients [1]; SLE patient 18): 51.5% | Percent Inhibition of proliferation of PBL (PBL of SLE patients [1]; SLE patient 19): 63% | Percent Inhibition of proliferation of PBL, Mean ± SD (PBL of SLE patients [1]): 68.12 ± 9.57% | responders whose PBL proliferation was inhibited (inhibition above 50% considered positive) (PBL of SLE patients [1]): 84.2% | patients whose PBL IL-2 secretion was inhibited (PBL of SLE patients [2]): 21/23 | Maximum inhibition % (IL-2 secretion) (PBL of SLE patients [2]): 84 ± 31% | inhibition of the IL-2 secretion by PBL (PBL of SLE patients [2]): 100% | Inhibitory Activity* % (IL-2 secretion) (PBL of SLE patients [2]): 91 (21/23) % | inhibition of the proliferative responses of the PBL to the mitogen PHA (PBL of SLE patients [3]): could not inhibit

YYCARGLLRGGWNDVDYYGMDV (Human) [hCDR3, peptide based on the CDR3 of the heavy chain of the human 16/6Id mAb]
inhibition of the proliferative responses of PBL to the human 16/6Id mAb (PBL of SLE patients [1]): inhibited efficiently | inhibition of the proliferative responses of PBL to human 16/6Id mAb (PBL of SLE patients [1]): did inhibit efficiently | Percent Inhibition of proliferation of PBL (PBL of SLE patients [1]; SLE patient 1): <50% | Percent Inhibition of proliferation of PBL (PBL of SLE patients [1]; SLE patient 2 (M. D.)): 75% | Percent Inhibition of proliferation of PBL (PBL of SLE patients [1]; SLE patient 3): <50% | Percent Inhibition of proliferation of PBL (PBL of SLE patients [1]; SLE patient 4): <50% | Percent Inhibition of proliferation of PBL (PBL of SLE patients [1]; SLE patient 5): 87.5% | Percent Inhibition of proliferation of PBL (PBL of SLE patients [1]; SLE patient 6): 80% | Percent Inhibition of proliferation of PBL (PBL of SLE patients [1]; SLE patient 7): 70.4% | Percent Inhibition of proliferation of PBL (PBL of SLE patients [1]; SLE patient 8 (S. D.)): 56% | Percent Inhibition of proliferation of PBL (PBL of SLE patients [1]; SLE patient 9): 65% | Percent Inhibition of proliferation of PBL (PBL of SLE patients [1]; SLE patient 10): 71.8% | Percent Inhibition of proliferation of PBL (PBL of SLE patients [1]; SLE patient 11): 72% | Percent Inhibition of proliferation of PBL (PBL of SLE patients [1]; SLE patient 12): 86% | Percent Inhibition of proliferation of PBL (PBL of SLE patients [1]; SLE patient 13): 64% | Percent Inhibition of proliferation of PBL (PBL of SLE patients [1]; SLE patient 14): 74% | Percent Inhibition of proliferation of PBL (PBL of SLE patients [1]; SLE patient 15): 69% | Percent Inhibition of proliferation of PBL (PBL of SLE patients [1]; SLE patient 16): 68% | Percent Inhibition of proliferation of PBL (PBL of SLE patients [1]; SLE patient 17): 77.8% | Percent Inhibition of proliferation of PBL (PBL of SLE patients [1]; SLE patient 18): <50% | Percent Inhibition of proliferation of PBL (PBL of SLE patients [1]; SLE patient 19): 60.8% | Percent Inhibition of proliferation of PBL, Mean ± SD (PBL of SLE patients [1]): 71.82 ± 8.44% | responders whose PBL proliferation was inhibited (inhibition above 50% considered positive) (PBL of SLE patients [1]): 78.9% | patients whose PBL IL-2 secretion was inhibited (PBL of SLE patients [2]): 19/23 | Maximum inhibition % (IL-2 secretion) (PBL of SLE patients [2]): 78 ± 34% | inhibition of the IL-2 secretion by PBL (PBL of SLE patients [2]): 100% | Inhibitory Activity* % (IL-2 secretion) (PBL of SLE patients [2]): 83 (19/23) % | inhibition of the proliferative responses of the PBL to the mitogen PHA (PBL of SLE patients [3]): could not inhibit
